Measurements as given in patent US20230085307A1, “PYRIDAZINONE COMPOUND AND HERBICIDE” (NISSAN CHEMICAL CORPORATION, priority 2019, published 2023).

Assays:
southern crabgrass = test: Test Example 5: herbicidal effect by foliage application, plastic box (Table 20, symbol F); type: in vivo, southern crabgrass (Digitaria ciliaris)
Outline: (§1)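 Plants were sown into sterilized diluvial soil under about 1.5 cm cover and kept in a greenhouse at 25° C. to 30° C. Fourteen days on, foliage received an even spray of the diluted emulsion. Herbicidal or crop effect was judged three weeks afterwards.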

green foxtail = test: Test Example 5: herbicidal effect by foliage application, plastic box (Table 20, symbol G); type: in vivo, green foxtail (Setaria viridis)
Outline: as §1

barnyard grass [1] = test: Test Example 5: herbicidal effect by foliage application, plastic box (Table 20, symbol H); type: in vivo, barnyard grass (Echinochloa crus-galli)
Outline: as §1

wild oat = test: Test Example 5: herbicidal effect by foliage application, plastic box (Table 20, symbol I); type: in vivo, wild oat (Avena fatua)
Outline: as §1

blackgrass = test: Test Example 5: herbicidal effect by foliage application, plastic box (Table 20, symbol J); type: in vivo, blackgrass (Alopecurus myosuroides)
Outline: as §1

Italian ryegrass = test: Test Example 5: herbicidal effect by foliage application, plastic box (Table 20, symbol K); type: in vivo, Italian ryegrass (Lolium multiflorum)
Outline: as §1

windgrass = test: Test Example 5: herbicidal effect by foliage application, plastic box (Table 20, symbol L); type: in vivo, windgrass (Apera spica-venti)
Outline: as §1

velvetleaf = test: Test Example 5: herbicidal effect by foliage application, plastic box (Table 20, symbol M); type: in vivo, velvetleaf (Abutilon theophrasti)
Outline: as §1

redroot pigweed = test: Test Example 5: herbicidal effect by foliage application, plastic box (Table 20, symbol N); type: in vivo, redroot pigweed (Amaranthus retroflexus)
From the text: (§2) [Test Example 5] Herbicidal Effect Test by Foliage Application
(§3) Sterilized diluvial soil was placed in a plastic box having a length of 21 cm, a width of 13 cm, and a depth of 7 cm. The seeds of each of southern crabgrass, green foxtail, barnyard grass, wild oat, blackgrass, Italian ryegrass, windgrass, velvetleaf, redroot pigweed, lambsquarters, chickweed, false cleavers, persian speedwell, corn, soybean, rice, wheat, beet, and rapeseed were sowed in a spot-like manner and covered with the soil having a thickness of about 1.5 cm. Thereafter, the plants were grown in a greenhouse at 25° C. to 30° C. After 14-day growth of the plants, the emulsion agent of the compound of the present invention prepared according to Formulation Example 2 was diluted with water so as to achieve a predetermined herbicide amount, and the diluted emulsion agent was uniformly applied to a foliage part with a small-sized spray. Three weeks after the herbicide application, the effect of the herbicide on each plant was evaluated according to the criteria of Test Example 1.

lambsquarters = test: Test Example 5: herbicidal effect by foliage application, plastic box (Table 20, symbol O); type: in vivo, lambsquarters (Chenopodium album)
Outline: as §1

chickweed = test: Test Example 5: herbicidal effect by foliage application, plastic box (Table 20, symbol P); type: in vivo, common chickweed (Stellaria media)
From the text: as §2, §3

persian speedwell = test: Test Example 5: herbicidal effect by foliage application, plastic box (Table 20, symbol R); type: in vivo, Persian speedwell (Veronica persica)
Outline: as §1

barnyard grass [2] = test: Test Example 3: herbicidal effect by foliage application, Wagner pot (Table 18, symbol H); type: in vivo, barnyard grass (Echinochloa crus-galli)
Outline: (§4)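 Plants were sown in alluvial soil held under 0.1–0.5 cm standing water and grown 14 days in a greenhouse at 25–30 °C. An emulsifiable formulation, water-diluted to the set dose, was then sprayed onto the foliage, and effects were scored three weeks later using previously defined criteria.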

Chinese sprangletop = test: Test Example 3: herbicidal effect by foliage application, Wagner pot (Table 18, symbol D); type: in vivo, chinese sprangletop (Leptochloa chinensis)
Outline: as §4

rice flat sedge = test: Test Example 3: herbicidal effect by foliage application, Wagner pot (Table 18, symbol E); type: in vivo, rice flat sedge (Cyperus iria)
Outline: as §4

[3] = foliage application, 320 g/ha, three weeks after application
[4] = foliage application, AAH 320 g/ha, three weeks after application
[5] = foliage application, AAH 80 g/ha, three weeks after application
[6] = 320 g/ha, foliage application after 14-day growth, evaluated three weeks after application
[7] = amount of applied herbicide 320 g/ha, foliage application after 14-day growth, evaluated three weeks after application

SMILES: COc1ccc(-c2sc3ccccc3c2-c2c(O)c(C)nn(C)c2=O)c(OC)n1 [1-079]
- herbicidal effect grade, F: southern crabgrass (southern crabgrass; [3]): 0 (Herbicidal rate of 5% or less (almost no effect))
- herbicidal effect grade, G: green foxtail (green foxtail; [3]): 0 (Herbicidal rate of 5% or less (almost no effect))
- herbicidal effect grade, H: barnyard grass (barnyard grass [1]; [3]): 0 (Herbicidal rate of 5% or less (almost no effect))
- herbicidal effect grade, I: wild oat (wild oat; [3]): 0 (Herbicidal rate of 5% or less (almost no effect))
- herbicidal effect grade, J: blackgrass (blackgrass; [3]): 0 (Herbicidal rate of 5% or less (almost no effect))
- herbicidal effect grade, K: Italian ryegrass (Italian ryegrass; [3]): 0 (Herbicidal rate of 5% or less (almost no effect))
- herbicidal effect grade, L: windgrass (windgrass; [3]): 0 (Herbicidal rate of 5% or less (almost no effect))
- herbicidal effect grade, M: velvetleaf (velvetleaf; [3]): 0 (Herbicidal rate of 5% or less (almost no effect))
- herbicidal effect grade, N: redroot pigweed (redroot pigweed; [3]): 0 (Herbicidal rate of 5% or less (almost no effect))
- herbicidal effect grade, O: lambsquarters (lambsquarters; [3]): 0 (Herbicidal rate of 5% or less (almost no effect))
- herbicidal effect grade, P: chickweed (chickweed; [3]): 1 (Herbicidal rate of 5% or more and less than 20%)
- herbicidal effect grade, R: persian speedwell (persian speedwell; [3]): 0 (Herbicidal rate of 5% or less (almost no effect))

SMILES: COc1cc(C(F)(F)F)ccc1-c1sc2ccccc2c1-c1c(O)c(C)nn(C)c1=O [1-155]
- herbicidal effect on H (barnyard grass), rating 0-5 (barnyard grass [2]; 320 g/ha): 3 (Herbicidal rate of 40% or more and less than 70%)
- herbicidal effect on D (Chinese sprangletop), rating 0-5 (Chinese sprangletop; 320 g/ha): 0 (Herbicidal rate of 5% or less (almost no effect))
- herbicidal effect on E (rice flat sedge), rating 0-5 (rice flat sedge; 320 g/ha): 3 (Herbicidal rate of 40% or more and less than 70%)
- F: southern crabgrass, herbicidal effect (southern crabgrass; [4]): 0 (Herbicidal rate of 5% or less (almost no effect))
- G: green foxtail, herbicidal effect (green foxtail; [4]): 3 (Herbicidal rate of 40% or more and less than 70%)
- H: barnyard grass, herbicidal effect (barnyard grass [1]; [4]): 1 (Herbicidal rate of 5% or more and less than 20%)
- I: wild oat, herbicidal effect (wild oat; [4]): 1 (Herbicidal rate of 5% or more and less than 20%)
- J: blackgrass, herbicidal effect (blackgrass; [4]): 4 (Herbicidal rate of 70% or more and less than 90%)
- K: Italian ryegrass, herbicidal effect (Italian ryegrass; [4]): 4 (Herbicidal rate of 70% or more and less than 90%)
- L: windgrass, herbicidal effect (windgrass; [4]): 4 (Herbicidal rate of 70% or more and less than 90%)
- M: velvetleaf, herbicidal effect (velvetleaf; [4]): 0 (Herbicidal rate of 5% or less (almost no effect))
- N: redroot pigweed, herbicidal effect (redroot pigweed; [4]): 2 (Herbicidal rate of 20% or more and less than 40%)
- O: lambsquarters, herbicidal effect (lambsquarters; [4]): 1 (Herbicidal rate of 5% or more and less than 20%)
- P: chickweed, herbicidal effect (chickweed; [4]): 5 (Herbicidal rate of 90% or more (almost completely withered))
- R: persian speedwell, herbicidal effect (persian speedwell; [4]): 4 (Herbicidal rate of 70% or more and less than 90%)

SMILES: CCCC(=O)Oc1c(OC)nn(C)c(=O)c1-c1c(-c2ccc(OC(F)(F)F)cc2)sc2ccccc12 [1-163]
- herbicidal effect on H (barnyard grass), rating 0-5 (barnyard grass [2]; 80 g/ha): 1 (Herbicidal rate of 5% or more and less than 20%)
- herbicidal effect on D (Chinese sprangletop), rating 0-5 (Chinese sprangletop; 80 g/ha): 3 (Herbicidal rate of 40% or more and less than 70%)
- herbicidal effect on E (rice flat sedge), rating 0-5 (rice flat sedge; 80 g/ha): 0 (Herbicidal rate of 5% or less (almost no effect))
- F: southern crabgrass, herbicidal effect (southern crabgrass; [5]): 0 (Herbicidal rate of 5% or less (almost no effect))
- G: green foxtail, herbicidal effect (green foxtail; [5]): 0 (Herbicidal rate of 5% or less (almost no effect))
- H: barnyard grass, herbicidal effect (barnyard grass [1]; [5]): 0 (Herbicidal rate of 5% or less (almost no effect))
- I: wild oat, herbicidal effect (wild oat; [5]): 0 (Herbicidal rate of 5% or less (almost no effect))
- J: blackgrass, herbicidal effect (blackgrass; [5]): 0 (Herbicidal rate of 5% or less (almost no effect))
- K: Italian ryegrass, herbicidal effect (Italian ryegrass; [5]): 0 (Herbicidal rate of 5% or less (almost no effect))
- L: windgrass, herbicidal effect (windgrass; [5]): 0 (Herbicidal rate of 5% or less (almost no effect))
- M: velvetleaf, herbicidal effect (velvetleaf; [5]): 0 (Herbicidal rate of 5% or less (almost no effect))
- N: redroot pigweed, herbicidal effect (redroot pigweed; [5]): 3 (Herbicidal rate of 40% or more and less than 70%)
- O: lambsquarters, herbicidal effect (lambsquarters; [5]): 2 (Herbicidal rate of 20% or more and less than 40%)
- P: chickweed, herbicidal effect (chickweed; [5]): 4 (Herbicidal rate of 70% or more and less than 90%)
- R: persian speedwell, herbicidal effect (persian speedwell; [5]): 5 (Herbicidal rate of 90% or more (almost completely withered))

SMILES: CCCC(=O)Oc1c(C)nn(C)c(=O)c1-c1c(-c2ccc(OC)c(OC)c2)sc2c(F)cccc12 [4-014]
- herbicidal effect on barnyard grass (H) (barnyard grass [2]; 320 g/ha): 3 (Herbicidal rate of 40% or more and less than 70%)
- herbicidal effect on Chinese sprangletop (D) (Chinese sprangletop; 320 g/ha): 0 (Herbicidal rate of 5% or less (almost no effect))
- herbicidal effect on rice flat sedge (E) (rice flat sedge; 320 g/ha): 0 (Herbicidal rate of 5% or less (almost no effect))
- herbicidal effect on F: southern crabgrass (evaluation grade 0-5) (southern crabgrass; [6]): 0 (Herbicidal rate of 5% or less (almost no effect))
- herbicidal effect on G: green foxtail (evaluation grade 0-5) (green foxtail; [6]): 4 (Herbicidal rate of 70% or more and less than 90%)
- herbicidal effect on H: barnyard grass (evaluation grade 0-5) (barnyard grass [1]; [6]): 2 (Herbicidal rate of 20% or more and less than 40%)
- herbicidal effect on I: wild oat (evaluation grade 0-5) (wild oat; [6]): 0 (Herbicidal rate of 5% or less (almost no effect))
- herbicidal effect on K: Italian ryegrass (evaluation grade 0-5) (Italian ryegrass; [6]): 1 (Herbicidal rate of 5% or more and less than 20%)
- herbicidal effect on L: windgrass (evaluation grade 0-5) (windgrass; [6]): 0 (Herbicidal rate of 5% or less (almost no effect))
- herbicidal effect on M: velvetleaf (evaluation grade 0-5) (velvetleaf; [6]): 3 (Herbicidal rate of 40% or more and less than 70%)
- herbicidal effect on N: redroot pigweed (evaluation grade 0-5) (redroot pigweed; [6]): 1 (Herbicidal rate of 5% or more and less than 20%)
- herbicidal effect on O: lambsquarters (evaluation grade 0-5) (lambsquarters; [6]): 0 (Herbicidal rate of 5% or less (almost no effect))
- herbicidal effect on P: chickweed (evaluation grade 0-5) (chickweed; [6]): 5 (Herbicidal rate of 90% or more (almost completely withered))
- herbicidal effect on R: persian speedwell (evaluation grade 0-5) (persian speedwell; [6]): 3 (Herbicidal rate of 40% or more and less than 70%)

SMILES: Cc1nn(C)c(=O)c(-c2c(-c3cccc(C(F)(F)F)c3)sc3c(Cl)cccc23)c1O [4-072]
- herbicidal effect on barnyard grass (H) (barnyard grass [2]; 320 g/ha): 3 (Herbicidal rate of 40% or more and less than 70%)
- herbicidal effect on Chinese sprangletop (D) (Chinese sprangletop; 320 g/ha): 3 (Herbicidal rate of 40% or more and less than 70%)
- herbicidal effect on rice flat sedge (E) (rice flat sedge; 320 g/ha): 4 (Herbicidal rate of 70% or more and less than 90%)
- Herbicidal effect by foliage application, F: southern crabgrass (southern crabgrass; [7]): 4 (Herbicidal rate of 70% or more and less than 90%)
- Herbicidal effect by foliage application, G: green foxtail (green foxtail; [7]): 3 (Herbicidal rate of 40% or more and less than 70%)
- Herbicidal effect by foliage application, H: barnyard grass (barnyard grass [1]; [7]): 1 (Herbicidal rate of 5% or more and less than 20%)
- Herbicidal effect by foliage application, I: wild oat (wild oat; [7]): 0 (Herbicidal rate of 5% or less (almost no effect))
- Herbicidal effect by foliage application, J: blackgrass (blackgrass; [7]): 0 (Herbicidal rate of 5% or less (almost no effect))
- Herbicidal effect by foliage application, K: Italian ryegrass (Italian ryegrass; [7]): 1 (Herbicidal rate of 5% or more and less than 20%)
- Herbicidal effect by foliage application, L: windgrass (windgrass; [7]): 0 (Herbicidal rate of 5% or less (almost no effect))
- Herbicidal effect by foliage application, M: velvetleaf (velvetleaf; [7]): 3 (Herbicidal rate of 40% or more and less than 70%)
- Herbicidal effect by foliage application, N: redroot pigweed (redroot pigweed; [7]): 5 (Herbicidal rate of 90% or more (almost completely withered))
- Herbicidal effect by foliage application, O: lambsquarters (lambsquarters; [7]): 2 (Herbicidal rate of 20% or more and less than 40%)
- Herbicidal effect by foliage application, P: chickweed (chickweed; [7]): 5 (Herbicidal rate of 90% or more (almost completely withered))
